What is called IC50 is the midpoint of a concentration-inhibition curve.

SMILES strings stand for the structures. A value given as a limit tells only on which side of the number the result lay.

In this assay the test system is HEK293 cells. Put plainly: HEK293 VLCFA-LPC IC50 determination (13C-labeled C26:0 LPC by UHPLC/MS). The conditions noted are these: Homo sapiens, HEK293, HEK293 cells; average of one or more replicates; read-out: Average HEK293 IC50. The class given is cell-based, human. The method in brief:
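Suspension HEK293 cells (final 0.5 million/mL after mixing with equal volume) incubated 48 hours with compound plus 13C-acetate (1.0 mg/mL in added media), shaking at 37° C. Lipids extracted with hexane/isopropanol or methanol, C13:0 LPC standard. UHPLC/MS of 13C-labeled C26:0 LPC (638.500/104.100 m/z); IC50 by four-parameter fit.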
As for `Cc1cc(NC(=O)C2(c3ncccc3F)CC2C)nn1-c1ccc(F)cc1F` (centres unmarked) [Compound 507, N-[1-(2,4-difluorophenyl)-5-methyl-pyrazol-3-yl]-1-(3-fluoro-2-pyridyl)-2-methyl-cyclopropanecarboxamide], the IC50 was greater than 5000 nM.

Regarding `CC1CC1(C(=O)Nc1ccn(-c2cc(F)cc(F)c2)n1)c1ncccc1F` (centres unmarked) [Compound 508, N-[1-(3,5-difluorophenyl)pyrazol-3-yl]-1-(3-fluoro-2-pyridyl)-2-methyl-cyclopropanecarboxamide], the IC50 is 71 nM.

Regarding `COc1ncc(-n2ccc(NC(=O)C3(c4ncccc4F)CC3C)n2)cc1F` (centres unmarked) [Compound 509, N-[1-(5-fluoro-6-methoxy-3-pyridyl)pyrazol-3-yl]-1-(3-fluoro-2-pyridyl)-2-methyl-cyclopropanecarboxamide], the IC50 amounted to 180 nM.

Consider `COc1cc(-n2ccc(NC(=O)C3(c4ncccc4F)CC3C)n2)ccn1` (centres unmarked) [Compound 510, 1-(3-fluoro-2-pyridyl)-N-[1-(2-methoxy-4-pyridyl)pyrazol-3-yl]-2-methyl-cyclopropanecarboxamide], for which the IC50 was determined as 670 nM.

As to `CC1(C)CC1(C(=O)Nc1ccn(-c2cncc(F)c2)n1)c1ncccc1F` (centres unmarked) [Compound 511, 1-(3-fluoro-2-pyridyl)-N-[1-(5-fluoro-3-pyridyl)pyrazol-3-yl]-2,2-dimethyl-cyclopropanecarboxamide], the half-inhibitory concentration (IC50) amounted to 310 nM.

For the compound `CC1(C)CC1(C(=O)Nc1ccn(-c2cncc(Cl)c2)n1)c1ncccc1F` (centres unmarked) [Compound 512, N-[1-(5-chloro-3-pyridyl)pyrazol-3-yl]-1-(3-fluoro-2-pyridyl)-2,2-dimethyl-cyclopropanecarboxamide], the IC50 amounted to 1100 nM.

On to `CC1(C)CC1(C(=O)Nc1ccn(-c2ccc(F)cc2)n1)c1ncccc1F` (centres unmarked) [Compound 513, N-[1-(4-fluorophenyl)pyrazol-3-yl]-1-(3-fluoro-2-pyridyl)-2,2-dimethyl-cyclopropanecarboxamide], for which the half-inhibitory concentration (IC50) came out at 980 nM.

As for `CC1(C)CC1(C(=O)Nc1ccn(-c2ccc(F)c(F)c2)n1)c1ncccc1F` (centres unmarked) [Compound 514, N-[1-(3,4-difluorophenyl)pyrazol-3-yl]-1-(3-fluoro-2-pyridyl)-2,2-dimethyl-cyclopropanecarboxamide], the IC50 stood at 1800 nM.

On to `Cc1cc(NC(=O)C2(c3ncccc3F)CC2(C)C)nn1-c1ccc(F)cc1F` (centres unmarked) [Compound 515, N-[1-(2,4-difluorophenyl)-5-methyl-pyrazol-3-yl]-1-(3-fluoro-2-pyridyl)-2,2-dimethyl-cyclopropanecarboxamide], for which the IC50 was greater than 5000 nM.

Regarding `CC1(C)CC1(C(=O)Nc1ccn(-c2cc(F)cc(F)c2)n1)c1ncccc1F` (centres unmarked) [Compound 516, N-[1-(3,5-difluorophenyl)pyrazol-3-yl]-1-(3-fluoro-2-pyridyl)-2,2-dimethyl-cyclopropanecarboxamide], the IC50 came out at 1300 nM.

On to `COc1ncc(-n2ccc(NC(=O)C3(c4ncccc4F)CC3(C)C)n2)cc1F` (centres unmarked) [Compound 517, N-[1-(5-fluoro-6-methoxy-3-pyridyl)pyrazol-3-yl]-1-(3-fluoro-2-pyridyl)-2,2-dimethyl-cyclopropanecarboxamide], for which the IC50 was found to be 1100 nM.

Consider `CC1(C)CC1(C(=O)Nc1ccn(-c2ccncc2)n1)c1ncccc1F` (centres unmarked) [Compound 518, 1-(3-fluoro-2-pyridyl)-2,2-dimethyl-N-[1-(4-pyridyl)pyrazol-3-yl]cyclopropanecarboxamide], for which the IC50 was found to be 1200 nM.

With `COc1cc(-n2ccc(NC(=O)C3(c4ncccc4F)CC3(C)C)n2)ccn1` (centres unmarked) [Compound 519, 1-(3-fluoro-2-pyridyl)-N-[1-(2-methoxy-4-pyridyl)pyrazol-3-yl]-2,2-dimethyl-cyclopropanecarboxamide], the half-maximal inhibitory concentration (IC50) is greater than 2000 nM.

For `O=C(Nc1ccn(-c2cncc(Cl)c2)n1)C1(c2ncccc2F)CC12CC2` (centres unmarked) [Compound 520, N-[1-(5-chloro-3-pyridyl)pyrazol-3-yl]-2-(3-fluoro-2-pyridyl)spiro[2.2]pentane-2-carboxamide], the IC50 is 1600 nM.

`O=C(Nc1ccn(-c2ccc(F)cc2)n1)C1(c2ncccc2F)CC12CC2` (centres unmarked) [Compound 521, N-[1-(4-fluorophenyl)pyrazol-3-yl]-2-(3-fluoro-2-pyridyl)spiro[2.2]pentane-2-carboxamide]: the IC50 was found to be 2300 nM.

For the compound `O=C(Nc1ccn(-c2ccc(F)c(F)c2)n1)C1(c2ncccc2F)CC12CC2` (centres unmarked) [Compound 522, N-[1-(3,4-difluorophenyl)pyrazol-3-yl]-2-(3-fluoro-2-pyridyl)spiro[2.2]pentane-2-carboxamide], the IC50 amounted to 810 nM.

For the compound `Cc1cc(NC(=O)C2(c3ncccc3F)CC23CC3)nn1-c1ccc(F)cc1F` (centres unmarked) [Compound 523, N-[1-(2,4-difluorophenyl)-5-methyl-pyrazol-3-yl]-2-(3-fluoro-2-pyridyl)spiro[2.2]pentane-2-carboxamide], the IC50 was greater than 2000 nM.

As for `O=C(Nc1ccn(-c2cc(F)cc(F)c2)n1)C1(c2ncccc2F)CC12CC2` (centres unmarked) [Compound 524, N-[1-(3,5-difluorophenyl)pyrazol-3-yl]-2-(3-fluoro-2-pyridyl)spiro[2.2]pentane-2-carboxamide], the IC50 was determined as 1500 nM.

In the case of `COc1ncc(-n2ccc(NC(=O)C3(c4ncccc4F)CC34CC4)n2)cc1F` (centres unmarked) [Compound 525, N-[1-(5-fluoro-6-methoxy-3-pyridyl)pyrazol-3-yl]-2-(3-fluoro-2-pyridyl)spiro[2.2]pentane-2-carboxamide], the 50% inhibitory concentration (IC50) came out at 680 nM.

Take `O=C(Nc1ccn(-c2ccncc2)n1)C1(c2ncccc2F)CC12CC2` (centres unmarked) [Compound 526, 2-(3-fluoro-2-pyridyl)-N-[1-(4-pyridyl)pyrazol-3-yl]spiro[2.2]pentane-2-carboxamide]: the half-maximal inhibitory concentration (IC50) was determined as 1900 nM.

Take `COc1cc(-n2ccc(NC(=O)C3(c4ncccc4F)CC34CC4)n2)ccn1` (centres unmarked) [Compound 527, 2-(3-fluoro-2-pyridyl)-N-[1-(2-methoxy-4-pyridyl)pyrazol-3-yl]spiro[2.2]pentane-2-carboxamide]: the IC50 is greater than 2000 nM.

As for `CC1CC1(C(=O)Nc1ccn(-c2ccncc2)n1)c1ncccc1F` (centres unmarked) [Compound 528, 1-(3-fluoro-2-pyridyl)-2-methyl-N-[1-(4-pyridyl)pyrazol-3-yl]cyclopropanecarboxamide], the IC50 turned out to be 270 nM.

As for `O=C(Nc1ccn(-c2cncc(F)c2)n1)C1(c2ncccn2)CC1` [Compound 529, N-[1-(5-fluoro-3-pyridyl)pyrazol-3-yl]-1-pyrimidin-2-yl-cyclopropanecarboxamide], the IC50 was 1300 nM.

In the case of `O=C(Nc1ccn(-c2cncc(Cl)c2)n1)C1(c2ncccn2)CC1` [Compound 530, N-[1-(5-chloro-3-pyridyl)pyrazol-3-yl]-1-pyrimidin-2-yl-cyclopropanecarboxamide], the IC50 was greater than 5000 nM.

As for `O=C(Nc1ccn(-c2ccc(F)c(F)c2)n1)C1(c2ncccn2)CC1` [Compound 532, N-[1-(3,4-difluorophenyl)pyrazol-3-yl]-1-pyrimidin-2-yl-cyclopropanecarboxamide], the IC50 is greater than 5000 nM.

For `Cc1cc(NC(=O)C2(c3ncccn3)CC2)nn1-c1ccc(F)cc1F` [Compound 533, N-[1-(2,4-difluorophenyl)-5-methyl-pyrazol-3-yl]-1-pyrimidin-2-yl-cyclopropanecarboxamide], the IC50 is greater than 2000 nM.

For `O=C(Nc1ccn(-c2cc(F)cc(F)c2)n1)C1(c2ncccn2)CC1` [Compound 534, N-[1-(3,5-difluorophenyl)pyrazol-3-yl]-1-pyrimidin-2-yl-cyclopropanecarboxamide], the IC50 was greater than 5000 nM.

In the case of `COc1ncc(-n2ccc(NC(=O)C3(c4ncccn4)CC3)n2)cc1F` [Compound 535, N-[1-(5-fluoro-6-methoxy-3-pyridyl)pyrazol-3-yl]-1-pyrimidin-2-yl-cyclopropanecarboxamide], the 50% inhibitory concentration (IC50) was greater than 5000 nM.

As to `O=C(Nc1ccn(-c2ccncc2)n1)C1(c2ncccn2)CC1` [Compound 536, N-[1-(4-pyridyl)pyrazol-3-yl]-1-pyrimidin-2-yl-cyclopropanecarboxamide], the IC50 was greater than 5000 nM.

Values taken from patent US20180251431A1 (VERTEX PHARMACEUTICALS INCORPORATED, priority 2016, published 2018).
